Several values for one entry are separate records, joined by “and”; a condition that tells them apart may be missing. Equal values may be shown once. Read-outs that look alike come from different tables or passages of the source. No end group written: not given here.
Legend:
[1] = test system: Candida glabrata ATCC15126; assay: Antimicrobial assays II, NCCLS broth microdilution MIC; type: cell-based; settings: in µg/mL
[2] = test system: Pseudomonas aeruginosa 105663; type: cell-based; settings: Table 9; in µg/mL
[3] = test system: Pseudomonas aeruginosa H187; type: cell-based; settings: in µg/mL
[4] = test system: Pseudomonas aeruginosa 100609; type: cell-based; settings: Table 9; in µg/mL
[5] = test system: P. aeruginosa H374; type: cell-based, Pseudomonas aeruginosa; settings: in µg/mL
[6] = test system: S. aureus (MRSA); type: cell-based, Staphylococcus aureus; settings: Table 13, strain SAP0017; in µg/mL
[7] = test system: E. coli UB1005; type: cell-based, Escherichia coli; settings: Table 12
[8] = test system: Candida albicans 105; type: cell-based; settings: Table 13; in µg/mL
[9] = test system: S. epidermidis C621; type: cell-based, Staphylococcus epidermidis; settings: Table 13; in µg/mL
[10] = test system: S. typhimurium 14028S; type: cell-based, Salmonella typhimurium; settings: Table 12

Compound | MIC C. glabrata ATCC15126 ([1]; Table 8) | MIC P. aeruginosa Tb 105663 [2] | MIC P. aeruginosa H187 ([3]; Table 8) | MIC P. aeruginosa H187 ([3]; Table 9) | MIC P. aeruginosa Tb 100609 [4] | MIC P. aeruginosa H374 ([5]; Table 9) | MIC C. glabrata ATCC15126 ([1]; Table 13) | MIC S. aureus SAP0017 [6] | MIC E. coli UB1005 [7] | MIC C. albicans 105 [8] | MIC S. epidermis C621 [9] | MIC P. aeruginosa H187 ([3]; Table 12) | MIC P. aeruginosa H374 ([5]; Table 12) | MIC S. typhimurium 14028S [10]
FAVGLRAIKRALKKLRRGVRKVAKDL-NH2 [P157 (119)] | 64 | 16 | 8 | 8 | 16 | 8 |  |  |  |  |  |  |  | 
CC(C)C[C@H](NC(=O)[C@H](C)NC(=O)[C@H](CC(C)C)NC(=O)[C@H](CCCCN)NC(=O)[C@H](C)NC(=O)[C@H](CC(C)C)NC(=O)[C@H](CCCCN)NC(=O)[C@H](CCCCN)NC(=O)[C@H](C)NC(=O)[C@H](CC(C)C)NC(=O)[C@H](CCCCN)NC(=O)[C@H](C)NC(=O)[C@H](CC(C)C)NC(=O)[C@H](CCCCN)NC(=O)[C@H](CCCCN)NC(=O)[C@H](C)NC(=O)[C@@H](N)Cc1ccccc1)C(=O)O [P61 (41)] | 32 | 8 | 8 | 8 | 16 | 4 |  |  |  |  |  |  |  | 
FAKLLAKALKKFAL-NH2 [P119 (81)] |  | 16 |  | 16 | 16 | 8 | 16 | 8 | 4 µg/mL | 16 | 4 | 16 | 8 | 8 µg/mL
FAKFLAKFLKKAL-NH2 [P111 (75)] |  | 32 |  | 8 | 16 | 8 | 32 | 8 | 16 µg/mL | 32 | 4 | 8 | 8 | 16 µg/mL
FALALKALKKLKKALKKAL-NH2 [P27 (12)] |  | 8 and 16 |  | 8 | 8 and 16 | 8 | 16 and 32 | 8 and 16 | 8 µg/mL | 16 and 32 | 4 | 8 | 8 | 16 µg/mL
FALALKALKKLAKKLKKLAKKAL-NH2 [P25 (10)] |  | 8 |  | 8 | 8 | 8 | 32 | 16 | 8 µg/mL | 32 | 4 | 8 | 8 | 8 µg/mL
FAKKLAKKLKKLAKLALAK-NH2 [P41 (23)] | 32 | 8 | 8 | 8 | 8 | 4 |  |  |  |  |  |  |  | 
FALLKALLKKAL-NH2 [P177 (138)] |  | 32 |  | 16 | 32 | 16 | 16 | 8 | 8 µg/mL | 16 | 4 | 16 | 16 | 16 µg/mL

— patent publication US20050209157A1, “Short bioactive peptides and methods for their use” (priority 2001, published 2005)
